No end group written: not given here.
What was measured:
Format in all cases: binding
VASP-EVH1 domain = VASP-EVH1 domain (Homo sapiens, UniProt P50552)
From the text: In addition, based on a number of different test ligand peptides, it was possible to gain an overview of the bonding affinities.

EVH1 domain (VASP-EVH1) [1] = target: T1, EVH1 domain (VASP-EVH1) (Homo sapiens, UniProt P50552); test: Bonding affinity to EVH1 domain by fluorescence titration
From the text: (§1) With the aid of the synthetic compound 85, by way of an example, the ligand peptides were synthetized with partially or completely substituted proline sequences and then examined for their interaction with the EVH1 domain (p=component 85). It was found therein that, due to the insertion of the mimetic 85, it was possible to increase the bonding affinity of the ligand peptides relative to the domain.
(§2) This is summarized in Table 1 below, which lists the bonding affinities of the ligand peptides as well as of the underlying native peptide ligands.
(§3) The bonding affinities were determined by means of fluorescence titration and isothermal calorimetry (p=component 85, wherein x denotes the already known PPII-mimetic amino acid according to structure 86 (presently as Fmoc-protected amino acid); and “2-Cl—F” stands for 2-Cl-phenylalanine).

EVH1 domain (VASP-EVH1) [2] = target: T1, EVH1 domain (VASP-EVH1); test: Bonding affinity to EVH1 domain by isothermal calorimetry (ITC)
From the text: as §1, §2, §3

VASP-EVH1 = VASP-EVH1 (Homo sapiens, UniProt P50552); test: Further experiments: bonding affinity of ligand peptides to the domain (method not given)
VASP-EVH1, sequence (P50552 2-113 limits assumed): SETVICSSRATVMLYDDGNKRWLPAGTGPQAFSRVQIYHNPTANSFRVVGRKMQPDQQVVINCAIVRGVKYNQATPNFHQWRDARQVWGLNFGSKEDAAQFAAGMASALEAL
From the text: In addition, the observed increase in affinity with the compounds according to the invention allows for the first time ever to forego using natural amino acids completely, while still preserving the ability to bind to the EVH1 domains: […]

T1 sequence (P50552 2-113): as the sequence (P50552 2-113 limits assumed) above
VASP-EVH1 domain, sequence (P50552 2-113): as the sequence (P50552 2-113 limits assumed) above

FPPPPT [FPPPPT]
bonding affinity KD (VASP-EVH1 domain): no measurable affinity

CC(=O)N[C@@H](CO)C(=O)N[C@@H](Cc1ccccc1)C(=O)N[C@@H](CCC(=O)O)C(=O)N[C@@H](Cc1ccccc1Cl)C(=O)N1CCC[C@H]1C(=O)N1CCC[C@H]1C(=O)N1CCC[C@H]1C(=O)N1CCC[C@H]1C(=O)N[C@H](C(=O)N[C@@H](CCC(=O)O)C(=O)N[C@@H](CC(=O)O)C(=O)N[C@@H](CCC(=O)O)C(=O)N[C@@H](CC(C)C)C(N)=O)[C@@H](C)O
Kd (EVH1 domain (VASP-EVH1) [1]): 5 µM | Kd (EVH1 domain (VASP-EVH1) [2]): 2000 nM

Ac-FPPPP [Ac-(SEQ ID NO: 4)-OH]
Kd (VASP-EVH1): > 500 µM

Reference: US9242985B2, “Structural mimetics of proline-rich peptides and use thereof” (priority 2011, dated 2016)
